For series [1], the system named is pentagastrin-stimulated acid secretion of the perfused rat stomach. The experiment in a line: Secretion-inhibiting action on the perfused rat stomach (pentagastrin-stimulated acid secretion). The series is classed as in vivo. Particulars: anesthetized CD rat, dose 1 μmol/kg i.d.; for inhibition in vivo at 1 µmol/kg: intraduodenal. An excerpt: In Table A which follows, the influence of the compounds according to the invention on the pentagastrin-stimulated acid secretion of the perfused rat stomach after intraduodenal administration in vivo is shown.
The abdomen of anesthetized rats (CD rat, female, 200-250 g; 1.5 g/kg i.m. urethane) was opened after tracheotomy by a median upper abdominal incision and a PVC catheter was fixed transorally in the esophagus and another via the pylorus such that the ends of the tubes just projected into the gastric lumen. The catheter leading from the pylorus led outward into the right abdominal wall through a side opening.
After thorough rinsing (about 50-100 ml), warm (37° C.) physiological NaCl solution was continuously passed through the stomach ([…], pH 6.8-6.9; Braun-Unita I). The pH (pH meter 632, glass electrode EA 147; φ=5 mm, Metrohm) and, by titration with a freshly prepared 0.01N NaOH solution to pH 7 (Dosimat 665 Metrohm), the secreted HCl were determined in the effluent in each case collected at an interval of 15 minutes.
The gastric secretion was stimulated by continuous infusion of 1 μg/kg (=1.65 ml/h) of i.v. pentagastrin (left femoral vein) about 30 min after the end of the operation (i.e. after determination of 2 preliminary fractions). The substances to be tested were administered intraduodenally in a 2.5 ml/kg liquid volume 60 min after the start of the continuous pentagastrin infusion.
The body temperature of the animals was kept at a constant 37.8-38° C. by infrared irradiation and heat pads (automatic, stepless control by means of a rectal temperature sensor).

The values that follow come from patent US20080033006A1, “1,2,4-Triazolo[ 1,5-A] Pyridines as Gastric Acid Secretion Inhibitors” (Altana Pharma AG, priority 2004, published 2008).

Compound `CCc1cccc(C)c1CNc1cc(C(=O)OC)cn2nc(C)nc12` [Example 1, 8-(2-Ethyl-6-methylbenzylamino)-2-methyl[1,2,4]triazolo[1,5-a]pyridine-6-carboxylic acid methyl ester] yielded a melting point of 139.8 °C.

`CCc1cccc(C)c1CNc1cc(C(=O)O)cn2nc(C)nc12` [Example 2, 8-(2-Ethyl-6-methyl-benzylamino)-2-methyl[1,2,4]triazolo[1,5-a]pyridine-6-carboxylic acid] displayed a melting point of 264.1 °C.

`CCc1cccc(C)c1CNc1cc(C(=O)N(C)C)cn2nc(C)nc12` [Example 3, 8-(2-Ethyl-6-methylbenzylamino)-N,N,2-trimethyl[1,2,4]triazolo[1,5-a]pyridine-6-carboxamide]: in series [1], the inhibition in vivo at 1 µmol/kg was above 25%.

Take `CCc1cccc(C)c1CNc1cc(C(=O)NCCOC)cn2nc(C)nc12` [Example 4, 8-(2-Ethyl-6-methylbenzylamino)-N-(2-methoxyethyl)-2-methyl[1,2,4]triazolo-[1,5a]-pyridine-6-carboxamide]: the “Inhibition of acid secretion” value in series [1] is below 25%.

`CCc1cccc(C)c1CNc1cc(COC)cn2nc(C)nc12` [Example 5, 8-(2-Ethyl-6-methylbenzylamino)-6-methoxymethyl-2-methyl[1,2,4]triazolo-[1,5-a]pyridine] had a melting point of 98.7 °C. The inhibition in vivo at 1 µmol/kg in series [1] is above 25%.

In turn, `CCc1cccc(C)c1CNc1cc(CO)cn2nc(C)nc12` [Example 6, 8-(2-Ethyl-6-methylbenzylamino)-6-hydroxymethyl-2-methyl[1,2,4]triazolo-[1,5-a]pyridine] returned a melting point of 180.3 °C. In series [1], this compound came in with an inhibition in vivo at 1 µmol/kg below 25%.

`CCc1cccc(C)c1CNc1cc(CN(C)C)cn2nc(C)nc12.Cl` [Example 7, 8-(2-Ethyl-6-methylbenzylamino)-6-dimethylaminomethyl-2-methyl[1,2,4]triazolo[1,5-a]pyridine hydrochloride] had a melting point of 235.8 °C. Besides, the inhibition in vivo at 1 µmol/kg in series [1] was above 25%.

In turn, `CCc1cccc(C)c1CNc1cc(CNC)cn2nc(C)nc12` [Example 8, 8-(2-Ethyl-6-methylbenzylamino)-6-methylaminomethyl-2-methyl[1,2,4]triazolo-[1,5-a]-pyridine] gave a melting point of 179 °C. Further, the inhibition in vivo at 1 µmol/kg in series [1] was above 25%.

`CCc1cccc(C)c1CNc1cc(CN)cn2nc(C)nc12` [Example 9, 8-(2-Ethyl-6-methylbenzylamino)-6-aminomethyl-2-methyl[1,2,4]triazolo-[1,5-a]pyridine]: the inhibition in vivo at 1 µmol/kg in series [1] is below 25%.

`CCc1cccc(C)c1CNc1cc(CN2CCOCC2)cn2nc(C)nc12` [Example 10, 8-(2-Ethyl-6-methylbenzylamino)-6-morpholinomethyl-2-methyl[1,2,4]triazolo-[1,5-a]-pyridine] came in with a melting point of 97.2 °C. Besides, the inhibition in vivo at 1 µmol/kg in series [1] is below 25%.

Compound `CCc1cccc(C)c1CNc1cc(Cn2ccnc2)cn2nc(C)nc12` [Example 11, 8-(2-Ethyl-6-methylbenzylamino)-6-(imidazol-1-ylmethyl)-2-methyl[1,2,4]triazolo-[1,5-a]-pyridine] displayed a melting point of 158.5 °C. In series [1], this compound showed an inhibition in vivo at 1 µmol/kg above 25%.

`CCc1cccc(C)c1CNc1cc(COCCOC)cn2nc(C)nc12.Cl` [Example 13, 8-(2-Ethyl-6-methylbenzylamino)-6-(2-methoxyethoxymethyl)-2-methyl-[1,2,4]triazolo[1,5-a]pyridine hydrochloride] yielded a melting point of 120.2 °C. The compound further yielded an inhibition in vivo at 1 µmol/kg in series [1] above 25%.
